Test system: hSIRT1 promoter
Assay: Enhancing the hSIRT1 promoter: EGFP fluorescence intensity in HaCaT-hSIRT1p-EGFP cells by flow cytometry
Format: cell-based, human
Conditions: 10 μM in DMSO, 24 hours after addition, FIG. 4
Experimental: HaCaT cells (human epidermis keratinocyte-derived cell lines, provided by Dr. Takumi Miura, National Center for Child Health and Development) were cultured using a Dalbecco's Modified Eagle Medium (DMEM) medium (Nissui Pharmaceutical Co., Ltd, Tokyo) supplemented with 10% FBS, 100,000 U/L penicillin (Meiji, Tokyo), 100 mg/L streptomycin (Meiji), and 2.0 g/L NaHCO3. These cells were subcultured at 37° C. in the presence of 5% CO2.
HaCaT cell lines (HaCaT-hSIRT1p-EGFP cells) into which the vector (phSIRT1-EGFP) described in Reference Example 1 was integrated were prepared as below.
The HaCaT cells were disseminated at 9.0×10^5 in a φ60-mm dish, and were cultured in 10% FBS supplemented DMEM medium. Cells as a control were prepared in a similar manner. After 24 hours, 8 μg of phSIRT1p-EGFP was added to and mixed with 300 μL of DMEM medium, 24 μL of Hilymax (manufactured by Dojindo Laboratories), which is a transfection reagent, was further added and mixed therewith, and the mixture was incubated for 15 minutes at room temperature. Subsequently, the total amount was added to the HaCaT cells. After 3 hours, the medium was replaced by 10% FBS supplemented DMEM medium.
At 24 hours after the gene introduction, the medium was replaced by 10% FBS supplemented DMEM medium containing 750 μg/mL of G418 (Wako Pure Chemical Industries, Ltd.). After visually confirming under a microscope that all the control non-treated HaCaT cells were killed, the subculture was continued using 10% FBS supplemented DMEM containing 150 μg/mL of G418.
It was confirmed with flow cytometry that the phSIRT1p-EGFP vector was reliably transferred inro the cells after the subculture. The above-described cells and the control non-treated HaCaT cells were plated at 7.0×10^5 per a φ60-mm dish, respectively. After 24 hours, the cells were picked up and well suspended in 2 mL of 5% FBS supplemented DMEM medium, and were filtered through a Nylon Mesh (Kyoshin Rikoh Inc., Japan), and the EGFP fluorescence intensity thereof was measured with a Flow Cytometer (EPICS, BeckmanCoulter). The analysis was performed using software FlowJo (Tree Star, Ashland Oreg.), so that the EGFP fluorescence intensity of each cell was represented as a histogram.
HaCaT-hSIRT1p-EGFP cells were plated at 1.7×10^6 cells in a φ60-mm dish (as measured by flow cytometry) or at 2.0×10^4 cells/well in a 96-well plate (as measured by an IN Cell Analyzer 1000). After 24 hours, 10 μM of each polyphenol or terpenoid dissolved in DMSO (Wako Pure Chemical Industries, Ltd.) was added thereto. Note that as a negative control, the same amount of DMSO was added without polyphenol or terpenoid, and as a positive control, 10 μM resveratrol was added. At 24 hours after the addition of the various polyphenols or terpenoids or the controls, the fluorescence intensity was measured by flow cytometry.

Compound	EGFP fluorescence intensity (hSIRT1 promoter activity)
O=c1c(O)c(-c2ccc(O)c(O)c2)oc2cc(O)ccc12 [fisetin]	hSIRT1 expression effect on skin epidermis cells was seen
O=C1OC[C@H]2OC(O)[C@H](O)[C@@H](O)[C@@H]2OC(=O)c2cc(O)c(O)c(O)c2-c2c(O)c(O)c3oc(=O)c4c(c(O)c(O)c5oc(=O)c2c3c54)-c2c1cc(O)c(O)c2O (mixture of isomers) [punicalin]	hSIRT1 expression effect on skin epidermis cells was seen
C[C@@]12C=Cc3occc3[C@H]1CC[C@@]13C[C@@H](CC[C@H]12)[C@@](O)(CO)C3 [kahweol]	hSIRT1 expression effect on skin epidermis cells was seen
O=c1oc2cc(O)ccc2c2ccc(O)cc12 [urolithin A]	hSIRT1 expression effect on skin epidermis cells was seen
O=C1O[C@H]2[C@@H]3OC(=O)c4cc(O)c(O)c(O)c4-c4c(O)c(O)c5oc(=O)c6c(c(O)c(O)c7oc(=O)c4c5c76)-c4c(cc(O)c(O)c4O)C(=O)OC[C@H]3OC(O)[C@@H]2OC(=O)c2cc(O)c(O)c(O)c2-c2c1cc(O)c(O)c2O (mixture of isomers) [punicalagin]	hSIRT1 expression effect on skin epidermis cells was seen
